# Measurements from PMC5513091, “A novel Alzheimer’s disease drug candidate targeting inflammation and fatty acid metabolism” (Alzheimer's Research & Therapy, 2017).
# Legend:
# rat hippocampal neurons = test: Aβ toxicity (extracellular); format: cell-based; conditions: Hippocampal neuron, read-out: Half-maximal effective concentration, Aβ toxicity (extracellular)
# APPswe/PS1∆E9 mice = test: Fear-conditioning assay; format: in vivo; conditions: AD mice fed 200 ppm in chow for 3 months from 10 months of age; day 2
# Experimental: The APPswe/PS1∆E9-transgenic mice were characterized previously. Line 85 mice carry two transgenes, the mouse/human chimeric APPswe, linked to Swedish familial AD and human PS1∆E9. At 10 months of age, female transgenic mice were fed a defined diet (Harlan Teklad; Envigo, Indianapolis, IN, USA) with and without CAD-31 (200 ppm, approximately 10 mg/kg/day). Treatment continued for 3 months, followed by behavior testing and tissue harvesting.
# Fear conditioning to either a cue or a context represents a form of associative learning. The readout that is measured in contextual and cued fear conditioning is a freezing response that occurs following the pairing of an unconditioned stimulus, such as a foot shock, with a conditioned stimulus, such as a particular context or cue (tone). The mouse will freeze if it remembers and associates that environment with the aversive stimulus. The hippocampus and the amygdala are required for fear memory, where the hippocampus is involved in the formation and retrieval of context fear associations and the amygdala is involved in conditioning and recall of associations to contextual and discrete cues. […] On day 2, the time spent freezing is measured over the entire time in the chamber. […] The percentage of time spent freezing by each mouse is averaged per group, and then groups can be compared and p values calculated to determine statistical significance.
compound,measurement,setting,value
Cc1ccc(N(/N=C/c2cccc(OC(F)(F)F)c2)C(=O)C(F)(F)F)c(C)c1 [CAD-31],EC50,rat hippocampal neurons,27 nM
same,time freezing in response to the context,APPswe/PS1∆E9 mice,more time freezing in response to the context
